Several values for one entry are separate records, joined by “and”; a condition that tells them apart may be missing. Identical values can stand only once. Toxic doses and inconclusive results are not listed.

In the test the test system is L1210 leukemia ip in BDF1 mice, survival T/C. The test is described as follows: NCI In Vivo Anticancer Drug Screen. Data for tumor model L1210 Leukemia (intraperitoneal) in B6D2F1 (BDF1) mice. The settings on record: endpoint: mean survival time, higher = longer survival. The method, boiled down: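 In this screen, tumor-bearing mice given compound are compared to those given vehicle, and their survival values are reported as a treated-to-control quotient.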

The mark [1] stands for this setting: dose: 100.0 mg/kg/injection, schedule: Q01DX009 (ip), vehicle: saline.
Setting [2] is: dose: 100.0 mg/kg/injection, schedule: Q04DX003 (ip), vehicle: saline.
[3] abbreviates: dose: 200.0 mg/kg/injection, schedule: Q01DX009 (ip), vehicle: saline.
Setting [4] is: dose: 200.0 mg/kg/injection, schedule: Q04DX003 (ip), vehicle: saline.
[5] abbreviates: dose: 400.0 mg/kg/injection, schedule: Q01DX009 (ip), vehicle: saline.
Setting [6] is: dose: 400.0 mg/kg/injection, schedule: Q04DX003 (ip), vehicle: saline.
The mark [7] stands for this setting: dose: 100.0 mg/kg/injection, schedule: Q01DX009 (ip), vehicle: Klucel (hydroxypropylcellulose) (HPC).
Where [8] appears, read: dose: 100.0 mg/kg/injection, schedule: Q04DX002 (ip), vehicle: saline with Tween-80.
[9] abbreviates: dose: 200.0 mg/kg/injection, schedule: Q01DX009 (ip), vehicle: Klucel (hydroxypropylcellulose) (HPC).
Setting [10] is: dose: 200.0 mg/kg/injection, schedule: Q04DX002 (ip), vehicle: saline with Tween-80.
The mark [11] stands for this setting: dose: 100.0 mg/kg/injection, schedule: Q04DX003 (ip), vehicle: Klucel (hydroxypropylcellulose) (HPC).
Setting [12] is: dose: 200.0 mg/kg/injection, schedule: Q04DX003 (ip), vehicle: Klucel (hydroxypropylcellulose) (HPC).
The mark [13] stands for this setting: dose: 400.0 mg/kg/injection, schedule: Q04DX003 (ip), vehicle: Klucel (hydroxypropylcellulose) (HPC).
The mark [14] stands for this setting: dose: 100.0 mg/kg/injection, schedule: Q04DX002 (ip), vehicle: Klucel (hydroxypropylcellulose) (HPC).
[15] abbreviates: dose: 200.0 mg/kg/injection, schedule: Q04DX002 (ip), vehicle: Klucel (hydroxypropylcellulose) (HPC).
Setting [16] is: dose: 400.0 mg/kg/injection, schedule: Q04DX002 (ip), vehicle: Klucel (hydroxypropylcellulose) (HPC).

As for `COC(=O)CCC(C)C1CCC2C3CCC4CC(OC(C)=O)CCC4(C)C3CCC12C` (stereo not drawn), the T/C is, setting by setting: (dose: 100.0 mg/kg/injection, schedule: Q01DX001 (ip), vehicle: saline with Tween-80) 95 % of control; (dose: 200.0 mg/kg/injection, schedule: Q01DX001 (ip), vehicle: saline with Tween-80) 95 % of control; (dose: 400.0 mg/kg/injection, schedule: Q01DX001 (ip), vehicle: saline with Tween-80) 89 % of control.

Take `C=C(Br)CN1C(=O)c2ccccc2C1=O`: the T/C reads like this: under setting [1], 89 % of control; under setting [2], 101 % of control; under setting [3], 112 % of control; under setting [4], 104 % of control; under setting [5], 87 % of control; under setting [6], 93 % of control.

Turning to `NC(=O)c1ccccc1N=NN(CCF)CCF`, the T/C (dose: 6.25 mg/kg/injection, schedule: Q01DX009 (ip), vehicle: Klucel (hydroxypropylcellulose) (HPC)) was 120 % of control; the T/C (dose: 6.25 mg/kg/injection, schedule: Q04DX003 (ip), vehicle: Klucel (hydroxypropylcellulose) (HPC)) was 112 % of control; the T/C (dose: 12.0 mg/kg/injection, schedule: Q04DX003 (ip), vehicle: Klucel (hydroxypropylcellulose) (HPC)) was 153 % of control; the T/C (dose: 12.5 mg/kg/injection, schedule: Q01DX001 (ip), vehicle: Klucel (hydroxypropylcellulose) (HPC)) is 106 % of control; the T/C (dose: 12.5 mg/kg/injection, schedule: Q04DX003 (ip), vehicle: Klucel (hydroxypropylcellulose) (HPC)) is 156 % of control; the T/C (dose: 25.0 mg/kg/injection, schedule: Q01DX001 (ip), vehicle: Klucel (hydroxypropylcellulose) (HPC)) was 113 % of control. Moreover, the T/C (dose: 25.0 mg/kg/injection, schedule: Q04DX003 (ip), vehicle: Klucel (hydroxypropylcellulose) (HPC)) was 104 % of control.

As to `CNC(Cc1ccccc1)c1ccco1` (stereo not drawn), the T/C by setting is: (dose: 50.0 mg/kg/injection, schedule: Q01DX009 (ip), vehicle: Klucel (hydroxypropylcellulose) (HPC)) 104 % of control; under setting [7], 104 % of control; under setting [8], 107 % of control; under setting [9], 102 % of control; under setting [10], 110 % of control.

As to `CC(C)C1=CC23CCC4C(C)(C(=O)O)CCCC4(C)C2CC1C1C(=O)N(CCCN(C)C)C(=O)C13` (stereo not drawn), the T/C was 96 % of control (dose: 75.0 mg/kg/injection, schedule: Q01DX001 (ip), vehicle: other) and 94 % of control (dose: 150.0 mg/kg/injection, schedule: Q01DX001 (ip), vehicle: other).

`NC(=O)NCCNC(N)=O`: the T/C under setting [1] is 108 % of control; the T/C under setting [2] is 97 % of control; the T/C under setting [3] was 110 % of control; the T/C under setting [4] is 105 % of control; the T/C under setting [5] is 108 % of control; the T/C under setting [6] was 103 % of control.

As for `CC(C)CC(=O)c1ccccc1`, the T/C (dose: 50.0 mg/kg/injection, schedule: Q04DX002 (ip), vehicle: saline) is 104 % of control; the T/C (dose: 100.0 mg/kg/injection, schedule: Q04DX002 (ip), vehicle: saline) was 97 % of control; the T/C (dose: 200.0 mg/kg/injection, schedule: Q04DX002 (ip), vehicle: saline) is 111 % of control.

In the case of `CC(=O)OCc1ccc[n+](CCc2c[nH]c3ccccc23)c1`, the T/C (dose: 100.0 mg/kg/injection, schedule: Q04DX003 (ip), vehicle: saline with Tween-80) was 95 % of control and the T/C (dose: 200.0 mg/kg/injection, schedule: Q04DX003 (ip), vehicle: saline with Tween-80) was 90 % of control.

As to `[CH3][Sn]([CH3])([Cl])[CH2]Cl`, the T/C was 112 % of control (dose: 0.39 mg/kg/injection, schedule: Q01DX009 (ip), vehicle: saline); 119 % of control (dose: 0.78 mg/kg/injection, schedule: Q01DX009 (ip), vehicle: saline); 97 % of control and 91 % of control (dose: 1.56 mg/kg/injection, schedule: Q01DX009 (ip), vehicle: saline); 87 % of control (dose: 3.12 mg/kg/injection, schedule: Q01DX009 (ip), vehicle: saline).

For the molecule `Cc1ccc(S(=O)(=O)N(C)c2ccc(N)cc2)cc1`, the T/C is, setting by setting: (dose: 100.0 mg/kg/injection, schedule: Q01DX001 (ip), vehicle: carboxymethylcellulose (CMC)) 102 % of control; (dose: 200.0 mg/kg/injection, schedule: Q01DX001 (ip), vehicle: carboxymethylcellulose (CMC)) 96 % of control; (dose: 400.0 mg/kg/injection, schedule: Q01DX001 (ip), vehicle: carboxymethylcellulose (CMC)) 91 % of control.

As to `O=C(Oc1ccccc1)Oc1c(Cl)cc([N+](=O)[O-])cc1[N+](=O)[O-]`, the T/C reads like this: under setting [11], 100 % of control; under setting [12], 100 % of control; under setting [13], 93 % of control.

Regarding `Cc1cc(C)cc(OCC(=O)O)c1`, the T/C was 95 % of control under setting [11], 90 % of control under setting [12] and 106 % of control under setting [13].

Consider `C/C(=N/N=C(N)N)c1cccc(O)c1`, for which the T/C by setting is: (dose: 15.0 mg/kg/injection, schedule: Q01DX Z (ip), vehicle: methylcellulose (MC)) 107 % of control; (dose: 30.0 mg/kg/injection, schedule: Q01DX Z (ip), vehicle: methylcellulose (MC)) 110 % of control; (dose: 30.0 mg/kg/injection, schedule: Q01DX Z (oral), vehicle: methylcellulose (MC)) 89 % of control; (dose: 60.0 mg/kg/injection, schedule: Q01DX Z (ip), vehicle: methylcellulose (MC)) 97 % of control.

With `NS(=O)(=O)c1c([N+](=O)[O-])ncn1C1OC(COC(=O)c2ccccc2)C(OC(=O)c2ccccc2)C1OC(=O)c1ccccc1` (stereo not drawn), the T/C is 93 % of control (dose: 100.0 mg/kg/injection, schedule: Q01DX005 (ip), vehicle: saline) and 95 % of control (dose: 200.0 mg/kg/injection, schedule: Q01DX005 (ip), vehicle: saline).

Consider `CCC1OC(=O)CC(O)C(C)C(OC2OC(C)CC(N(C)C)C2O)C(CC=O)CC(C)C(=O)/C=C/C2(C)OC2C1C` (stereo not drawn), for which the T/C is, setting by setting: (dose: 75.0 mg/kg/injection, schedule: Q01DX009 (ip), vehicle: saline with Tween-80) 93 % of control; (dose: 150.0 mg/kg/injection, schedule: Q01DX009 (ip), vehicle: saline with Tween-80) 102 % of control.

As to `CCCCNC(=O)Nc1cc(C)ccc1Cl`, the T/C was 115 % of control under setting [14], 97 % of control under setting [15] and 105 % of control under setting [16].

For the molecule `O=C(Nc1ccc([N+](=O)[O-])cc1Cl)SCc1ccccc1`, the T/C (dose: 100.0 mg/kg/injection, schedule: Q01DX001 (ip), vehicle: Klucel (hydroxypropylcellulose) (HPC)) is 96 % of control; the T/C under setting [7] is 94 % of control and 101 % of control; the T/C under setting [14] was 95 % of control and 105 % of control; the T/C under setting [11] is 92 % of control; the T/C (dose: 200.0 mg/kg/injection, schedule: Q01DX001 (ip), vehicle: Klucel (hydroxypropylcellulose) (HPC)) was 96 % of control; the T/C under setting [9] is 97 % of control and 106 % of control. Further, the T/C runs as follows: under setting [15], 103 % of control and 105 % of control; under setting [12], 95 % of control; (dose: 400.0 mg/kg/injection, schedule: Q01DX001 (ip), vehicle: Klucel (hydroxypropylcellulose) (HPC)) 96 % of control; under setting [16], 94 % of control and 95 % of control; under setting [13], 92 % of control.

In the case of `CC(=O)Nc1cncc2ccccc12`, the T/C (dose: 100.0 mg/kg/injection, schedule: Q01DX009 (ip), vehicle: other) is 104 % of control; the T/C (dose: 100.0 mg/kg/injection, schedule: Q04DX002 (ip), vehicle: other) is 97 % of control; the T/C (dose: 200.0 mg/kg/injection, schedule: Q01DX009 (ip), vehicle: other) was 101 % of control; the T/C (dose: 200.0 mg/kg/injection, schedule: Q04DX002 (ip), vehicle: other) is 105 % of control; the T/C (dose: 400.0 mg/kg/injection, schedule: Q01DX009 (ip), vehicle: other) is 106 % of control; the T/C (dose: 400.0 mg/kg/injection, schedule: Q04DX002 (ip), vehicle: other) was 105 % of control.

On to `CC(C)(C)N(Cl)C#N`, for which the T/C under setting [8] was 93 % of control; the T/C under setting [10] is 97 % of control; the T/C (dose: 400.0 mg/kg/injection, schedule: Q04DX002 (ip), vehicle: saline with Tween-80) is 97 % of control.

The values are drawn from PubChem BioAssay AID248 (DTP/NCI, 2004).
